Test results from patent publication US20100298285A1, “Biclycloheteroaryl Compounds as P2x7 Modulators and Uses Thereof” (priority 2006, published 2010).

The compounds below were run on IL-1β release, THP-1 cells (assay: IL-1β release assay in differentiated THP-1 cells stimulated with BzATP (Example 9)). Settings: Homo sapiens; 0.1 μM compound ("*" symbols); differentiated THP-1 cells, 250 uM BzATP; read-out: IL-1β% Inhib. @ 0.3 or 0.1 μM.
Assay type: cell-based
Method in brief: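 THP-1 cells differentiated 16 h with 100 ng/mL LPS + 100 ng/mL IFN-γ, re-primed 2 h with fresh LPS 100 ng/mL, pretreated 30 min with compound, then stimulated with BzATP 250 uM final for 45 min. Supernatant IL-1β by ELISA; background-adjusted % inhibition, IC50 from four-parameter logistic fit.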

Compound | inhibition at 0.1 µM [%]
O=C(Cc1ccc(C(F)(F)F)cc1)Nc1c(Cl)ccc2c1CCN(S(=O)(=O)c1cccc(Cl)c1Cl)C2 [Compound 3014] | 0 to 25
O=C(Cc1ccc(C(F)(F)F)cc1)Nc1c(Cl)ccc2c1CCN(S(=O)(=O)c1ccc(F)cc1F)C2 [Compound 3007] | 0 to 25
O=C(Cc1ccc(C(F)(F)F)cc1)Nc1c(Cl)ccc2c1CCN(S(=O)(=O)c1cccc(Cl)c1F)C2 [Compound 3019] | 0 to 25

Same assay, conditions: Homo sapiens; 0.3 μM compound ("+" symbols); differentiated THP-1 cells, 250 uM BzATP; read-out: IL-1β% Inhib. @ 0.3 or 0.1 μM

Compound | inhibition at 0.3 µM [%]
CN(C)c1ccc(C(=O)N2CCc3c(ccc(Cl)c3NC(=O)Cc3cccc(C(F)(F)F)c3F)C2)cc1 [Compound 3159] | 0 to 25
Cc1cc(C(=O)N2CCc3c(ccc(Cl)c3NC(=O)Cc3ccc(C(F)(F)F)c(F)c3)C2)no1 [Compound 3116] | 0 to 25
O=C(Cc1ccc(C(F)(F)F)c(F)c1)Nc1cccc2c1CCN(C(=O)C1CCOC1)C2 (centres unmarked) [Compound 3039] | 26 to 50
O=C(Cc1cccc(C(F)(F)F)c1F)Nc1c(Cl)ccc2c1CCN(C(=O)c1ccc(Cl)cc1)C2 [Compound 3139] | 0 to 25
O=C(Cc1ccc(C(F)(F)F)c(F)c1)Nc1c(Cl)ccc2c1CCN(C(=O)c1cc(F)c(F)cc1F)C2 [Compound 3078] | 0 to 25
CC(C)(C)C(=O)N1CCc2c(ccc(Cl)c2NC(=O)Cc2cccc(C(F)(F)F)c2F)C1 [Compound 3155] | 0 to 25
O=C(Cc1ccc(C(F)(F)F)c(F)c1)Nc1cccc2c1CCN(C(=O)[C@@H]1CCCN1)C2 [Compound 3055] | 51 to 75
Cc1ccc(C(=O)N2CCc3c(ccc(Cl)c3NC(=O)Cc3ccc(C(F)(F)F)c(F)c3)C2)cc1 [Compound 3119] | 26 to 50
CC(C)(C)c1ccc(C(=O)N2CCc3c(ccc(Cl)c3NC(=O)Cc3ccc(C(F)(F)F)c(F)c3)C2)cc1 [Compound 3124] | 0 to 25
O=C(Cc1cccc(C(F)(F)F)c1F)Nc1c(Cl)ccc2c1CCN(C(=O)c1ccccc1)C2 [Compound 3137] | 0 to 25
O=C(Cc1cccc(C(F)(F)F)c1F)Nc1c(Cl)ccc2c1CCN(C(=O)COc1ccc(Cl)cc1)C2 [Compound 3167] | 26 to 50
N#Cc1ccc(C(=O)N2CCc3c(ccc(Cl)c3NC(=O)Cc3cccc(C(F)(F)F)c3F)C2)cc1 [Compound 3161] | 0 to 25

Same assay, conditions: Homo sapiens; THP-1 cells, BzATP 250 uM, four parameter logistic fit

Compound | IC50 [nM]
Cc1ccc2c(c1NC(=O)Cc1ccc(C(F)(F)F)c(F)c1)CCN(C(=O)C1CCCC1)C2 [Compound 3208] | 60.2
CCC(=O)N1CCc2c(ccc(C)c2NC(=O)Cc2ccc(C(F)(F)F)c(F)c2)C1 [Compound 3203] | 85.8
O=C(Cc1ccc(C(F)(F)F)c(F)c1)Nc1cccc2c1CCN(C(=O)C1CCOC1)C2 (centres unmarked) [Compound 3039] | 443
COc1ccc2c(c1NC(=O)Cc1ccc(C(F)(F)F)c(F)c1)CCN(C(=O)C(C)(C)C)C2 [Compound 3474, N-[2-(2,2-Dimethyl-propionyl)-6-methoxy-1,2,3,4-tetrahydro-isoquinolin-5-yl]-2-(3-fluoro-4-trifluoromethyl-phenyl)-acetamide] | 201
Cc1ccc2c(c1NC(=O)Cc1ccc(C(F)(F)F)c(F)c1)CCN(S(=O)(=O)c1c(F)cccc1F)C2 [Compound 3425] | 78.5
CC(C)S(=O)(=O)N1CCc2c(ccc(Cl)c2NC(=O)Cc2ccc(C(F)(F)F)c(F)c2)C1 [Compound 3304] | 71.1
O=C(Cc1ccc(C(F)(F)F)c(F)c1)Nc1cccc2c1CCN(C(=O)[C@@H]1CCCN1)C2 [Compound 3055] | 182
CCCCS(=O)(=O)N1CCc2c(ccc(Cl)c2NC(=O)Cc2cccc(C(F)(F)F)c2F)C1 [Compound 3327] | 47.2
